The subject of one data set is Enterococcus faecalis. In words: Antibacterial activity against […] A20688. The class given is functional.
Data set [1] is described as follows: Solubility at pH 3.8. The class given is physicochemical. The note with it: buffer.
A further data set deals with Staphylococcus aureus. In words: Antibacterial activity against methicillin-sensitive Staphylococcus aureus A15090. Format: functional.
In the next data set the test system is Streptococcus pneumoniae. In words: Antibacterial activity against penicillin resistant Streptococcus pneumoniae A28272. Format: functional.
A short description of data set [2]: Solubility at pH 3.4. The class given is physicochemical. As to conditions: buffer.
The species named for a further data set is Mus musculus. Kind of data set: Activity against Staphylococcus aureus A15090 infected ICR mouse after 8 days. The class given is functional. As to conditions: 192 h, read-out: PD50.
Data set [3] is described as follows: Solubility at pH 4.0. The class given is physicochemical. The note with it: buffer.
The nature of data set [4]: Solubility at pH 3.1. Format: physicochemical. As to conditions: buffer.
A short description of data set [5]: Solubility at pH 3.3. The class given is physicochemical. The note with it: buffer.
The nature of data set [6]: Solubility at pH 2.8. The class given is physicochemical. The note with it: buffer.
The nature of data set [7]: Solubility at pH 8.1. Format: physicochemical. The note with it: buffer.
Data set [8] can be described thus: Solubility at pH 8.4. Format: physicochemical. As to conditions: buffer.
Data set [9] is described as follows: Solubility at pH 3.5. As to conditions: buffer. Format: physicochemical.
Data set [10] is described as follows: Solubility at pH 8.7. The class given is physicochemical. The note with it: buffer.
A short description of data set [11]: Solubility at pH 2.9. The class given is physicochemical. As to conditions: buffer.

The structures appear in SMILES notation. Converted amounts (≈) assume the structure as drawn.

One may read the MIC as the lowest concentration that inhibits growth of the organism. Low readings indicate inhibition by little substance, high ones a need for much substance. The term solubility denotes the dissolved amount per volume that the medium holds. A high value points to much dissolved substance. For the compound `CO/C(C)=C1/NC(=O)[C@H]([C@@H](C)O)NC(=O)c2csc(n2)-c2cc(O)c(-c3nc(C(=O)N[C@@H](C)C(=O)NCc4cc(O)cc(O)c4)cs3)nc2-c2csc(n2)[C@@H]2COC(=O)c3c4c5c(cccc5n3O)COC(=O)[C@@H](O[C@H]3C[C@](C)(O)[C@H](N(C)C)[C@H](C)O3)[C@@H](OC4)[C@H](NC(=O)c3csc1n3)c1nc(cs1)C(=O)N2`, the MIC is 2 µg/mL (≈ 1.28 µM) in the data set on Enterococcus faecalis, 1 µg/mL (≈ 0.64 µM) with Staphylococcus aureus and 0.25 µg/mL (≈ 0.16 µM) with Streptococcus pneumoniae. The compound further gave a solubility in data set [1] of under 0.3 µg/mL.
For the compound `CO/C(C)=C1/NC(=O)[C@H]([C@@H](C)O)NC(=O)c2csc(n2)-c2cc(O)c(-c3nc(C(=O)N[C@@H](C)C(=O)N(CCO)CCO)cs3)nc2-c2csc(n2)[C@@H]2COC(=O)c3c4c5c(cccc5n3O)COC(=O)[C@@H](O[C@H]3C[C@](C)(O)[C@H](N(C)C)[C@H](C)O3)[C@@H](OC4)[C@H](NC(=O)c3csc1n3)c1nc(cs1)C(=O)N2`, the solubility in data set [2] is over 1200 µg/mL. Also, in the data set filed under Mus musculus, the ED50 was over 10 mg/kg. Besides, the MIC in the data set with Enterococcus faecalis is 0.5 µg/mL (≈ 0.327 µM); in the data set with Staphylococcus aureus it was 0.25 µg/mL (≈ 0.164 µM); against Streptococcus pneumoniae it was 0.25 µg/mL (≈ 0.164 µM).
As to `CO/C(C)=C1/NC(=O)[C@H]([C@@H](C)O)NC(=O)c2csc(n2)-c2cc(O)c(-c3nc(C(=O)N[C@@H](C)C(=O)N(C)CCO)cs3)nc2-c2csc(n2)[C@@H]2COC(=O)c3c4c5c(cccc5n3O)COC(=O)[C@@H](O[C@H]3C[C@](C)(O)[C@H](N(C)C)[C@H](C)O3)[C@@H](OC4)[C@H](NC(=O)c3csc1n3)c1nc(cs1)C(=O)N2`, the solubility in [3] and in data set [4] was 2300 µg/mL (≈ 1540 µM) in each case. Also, the ED50 in the data set listed under Mus musculus is 1.65 mg/kg. Also, the MIC against Enterococcus faecalis turned out to be 0.03 µg/mL (≈ 0.02 µM); in the data set on Staphylococcus aureus, 0.06 µg/mL (≈ 0.0401 µM); against Streptococcus pneumoniae it was 0.003 µg/mL (≈ 0.002 µM).
Regarding `CO/C(C)=C1/NC(=O)[C@H]([C@@H](C)O)NC(=O)c2csc(n2)-c2cc(O)c(-c3nc(C(=O)N[C@@H](C)C(=O)N4CCC(P(=O)(OC)OC)CC4)cs3)nc2-c2csc(n2)[C@@H]2COC(=O)c3c4c5c(cccc5n3O)COC(=O)[C@@H](O[C@H]3C[C@](C)(O)[C@H](N(C)C)[C@H](C)O3)[C@@H](OC4)[C@H](NC(=O)c3csc1n3)c1nc(cs1)C(=O)N2`, the results for the MIC with Enterococcus faecalis, against Staphylococcus aureus and against Streptococcus pneumoniae were 0.03 µg/mL (≈ 0.0186 µM), 0.015 µg/mL (≈ 0.00928 µM) and 0.015 µg/mL (≈ 0.00928 µM), respectively. In data set [5], this compound had a solubility of over 3000 µg/mL.
Take `CO/C(C)=C1/NC(=O)[C@H]([C@@H](C)O)NC(=O)c2csc(n2)-c2cc(O)c(-c3nc(C(=O)N[C@@H](C)C(=O)NCCCOC4O[C@H](CO)[C@@H](O)[C@H](O)[C@H]4O)cs3)nc2-c2csc(n2)[C@@H]2COC(=O)c3c4c5c(cccc5n3O)COC(=O)[C@@H](O[C@H]3C[C@](C)(O)[C@H](N(C)C)[C@H](C)O3)[C@@H](OC4)[C@H](NC(=O)c3csc1n3)c1nc(cs1)C(=O)N2` (some centres undefined): the MIC was 8 µg/mL (≈ 4.82 µM) against Enterococcus faecalis, 4 µg/mL (≈ 2.41 µM) in the data set on Staphylococcus aureus and 1 µg/mL (≈ 0.602 µM) against Streptococcus pneumoniae. This compound also had a solubility in data set [6] of over 2000 µg/mL.
As to `CO/C(C)=C1/NC(=O)[C@H]([C@@H](C)O)NC(=O)c2csc(n2)-c2cc(O)c(-c3nc(C(=O)N[C@@H](C)C(=O)NCCCP(=O)([O-])O)cs3)nc2-c2csc(n2)[C@@H]2COC(=O)c3c4c5c(cccc5n3O)COC(=O)[C@@H](O[C@H]3C[C@](C)(O)[C@H](N(C)C)[C@H](C)O3)[C@@H](OC4)[C@H](NC(=O)c3csc1n3)c1nc(cs1)C(=O)N2.[Na+]`, the MIC against Enterococcus faecalis came out at 32 µg/mL; against Staphylococcus aureus, 8 µg/mL; with Streptococcus pneumoniae, 0.25 µg/mL. In [7], this compound came in with a solubility of over 1700 µg/mL.
As to `CO/C(C)=C1/NC(=O)[C@H]([C@@H](C)O)NC(=O)c2csc(n2)-c2cc(O)c(-c3nc(C(=O)N[C@@H](C)C(=O)NCCCO)cs3)nc2-c2csc(n2)[C@@H]2COC(=O)c3c4c5c(cccc5n3O)COC(=O)[C@@H](O[C@H]3C[C@](C)(O)[C@H](N(C)C)[C@H](C)O3)[C@@H](OC4)[C@H](NC(=O)c3csc1n3)c1nc(cs1)C(=O)N2`, the ED50 in the data set listed under Mus musculus is 1.25 mg/kg. Further, the MIC against Enterococcus faecalis amounted to 0.03 µg/mL (≈ 0.02 µM); in the data set on Staphylococcus aureus, 0.06 µg/mL (≈ 0.0401 µM); against Streptococcus pneumoniae, 0.007 µg/mL (≈ 0.00467 µM). In addition, in data set [6], the solubility came out at 2700 µg/mL (≈ 1800 µM).
Consider `CO/C(C)=C1/NC(=O)[C@H]([C@@H](C)O)NC(=O)c2csc(n2)-c2cc(O)c(-c3nc(C(=O)N[C@@H](C)C(=O)NCCS(=O)(=O)O)cs3)nc2-c2csc(n2)[C@@H]2COC(=O)c3c4c5c(cccc5n3O)COC(=O)[C@@H](O[C@H]3C[C@](C)(O)[C@H](N(C)C)[C@H](C)O3)[C@@H](OC4)[C@H](NC(=O)c3csc1n3)c1nc(cs1)C(=O)N2`, for which, in the data set filed under Mus musculus, the ED50 was over 10 mg/kg. The MIC was determined as 0.25 µg/mL (≈ 0.162 µM) in the data set with Enterococcus faecalis, 0.25 µg/mL (≈ 0.162 µM) against Staphylococcus aureus and 0.03 µg/mL (≈ 0.0194 µM) against Streptococcus pneumoniae. In addition, the solubility in [8] is over 2100 µg/mL.
Regarding `CO/C(C)=C1/NC(=O)[C@H]([C@@H](C)O)NC(=O)c2csc(n2)-c2cc(O)c(-c3nc(C(=O)N[C@@H](C)C(=O)NCCN(C)C)cs3)nc2-c2csc(n2)[C@@H]2COC(=O)c3c4c5c(cccc5n3O)COC(=O)[C@@H](O[C@H]3C[C@](C)(O)[C@H](N(C)C)[C@H](C)O3)[C@@H](OC4)[C@H](NC(=O)c3csc1n3)c1nc(cs1)C(=O)N2`, the MIC in the data set on Enterococcus faecalis was 0.25 µg/mL (≈ 0.165 µM); in the data set on Staphylococcus aureus it was 0.125 µg/mL (≈ 0.0827 µM); in the data set on Streptococcus pneumoniae, 0.125 µg/mL (≈ 0.0827 µM). The same compound returned a solubility in data set [9] of over 2400 µg/mL.
With `CO/C(C)=C1/NC(=O)[C@H]([C@@H](C)O)NC(=O)c2csc(n2)-c2cc(O)c(-c3nc(C(=O)N[C@@H](C)C(=O)NCCCN4CCCC4)cs3)nc2-c2csc(n2)[C@@H]2COC(=O)c3c4c5c(cccc5n3O)COC(=O)[C@@H](O[C@H]3C[C@](C)(O)[C@H](N(C)C)[C@H](C)O3)[C@@H](OC4)[C@H](NC(=O)c3csc1n3)c1nc(cs1)C(=O)N2`, the MIC against Enterococcus faecalis turned out to be 0.5 µg/mL (≈ 0.322 µM); with Staphylococcus aureus, 0.25 µg/mL (≈ 0.161 µM); against Streptococcus pneumoniae, 0.25 µg/mL (≈ 0.161 µM). In data set [5], this compound came in with a solubility of over 2600 µg/mL.
With `CO/C(C)=C1/NC(=O)[C@H]([C@@H](C)O)NC(=O)c2csc(n2)-c2cc(O)c(-c3nc(C(=O)N[C@@H](C)C(=O)NCCc4ccc(S(=O)(=O)O)cc4)cs3)nc2-c2csc(n2)[C@@H]2COC(=O)c3c4c5c(cccc5n3O)COC(=O)[C@@H](O[C@H]3C[C@](C)(O)[C@H](N(C)C)[C@H](C)O3)[C@@H](OC4)[C@H](NC(=O)c3csc1n3)c1nc(cs1)C(=O)N2`, in the data set filed under Mus musculus, the ED50 is over 10 mg/kg. For the same compound, the results for the MIC with Enterococcus faecalis, against Staphylococcus aureus and with Streptococcus pneumoniae were 1 µg/mL (≈ 0.616 µM), 0.5 µg/mL (≈ 0.308 µM) and 0.125 µg/mL (≈ 0.077 µM), respectively. The solubility in data set [10] was over 1200 µg/mL.
Turning to `CO/C(C)=C1/NC(=O)[C@H]([C@@H](C)O)NC(=O)c2csc(n2)-c2cc(O)c(-c3nc(C(=O)N[C@@H](C)C(=O)NCc4ccc(O)c(O)c4)cs3)nc2-c2csc(n2)[C@@H]2COC(=O)c3c4c5c(cccc5n3O)COC(=O)[C@@H](O[C@H]3C[C@](C)(O)[C@H](N(C)C)[C@H](C)O3)[C@@H](OC4)[C@H](NC(=O)c3csc1n3)c1nc(cs1)C(=O)N2`, the ED50 in the data set listed under Mus musculus was over 10 mg/kg. The MIC in the data set with Enterococcus faecalis came to 0.06 µg/mL (≈ 0.0384 µM); in the data set with Staphylococcus aureus, 0.03 µg/mL (≈ 0.0192 µM); in the data set with Streptococcus pneumoniae it was 0.007 µg/mL (≈ 0.00448 µM). The solubility in [11] worked out at 20 µg/mL (≈ 12.8 µM).
As for `CO/C(C)=C1/NC(=O)[C@H]([C@@H](C)O)NC(=O)c2csc(n2)-c2cc(O)c(-c3nc(C(=O)N[C@@H](C)C(=O)NCCOCCOCCOCCOCCOCCOC4O[C@H](CO)[C@@H](O)[C@H](O)[C@H]4O)cs3)nc2-c2csc(n2)[C@@H]2COC(=O)c3c4c5c(cccc5n3O)COC(=O)[C@@H](O[C@H]3C[C@](C)(O)[C@H](N(C)C)[C@H](C)O3)[C@@H](OC4)[C@H](NC(=O)c3csc1n3)c1nc(cs1)C(=O)N2` (some centres undefined), the MIC in the data set on Enterococcus faecalis worked out at 8 µg/mL (≈ 4.29 µM); with Staphylococcus aureus, 4 µg/mL (≈ 2.14 µM); against Streptococcus pneumoniae, 1 µg/mL (≈ 0.536 µM). Besides, the solubility in data set [11] was over 3700 µg/mL.
In turn, `C=C(NC(=O)c1csc(-c2nc3c(cc2O)-c2nc(cs2)C(=O)N[C@@H]([C@@H](C)O)C(=O)N/C(=C(\C)OC)c2nc(cs2)C(=O)N[C@@H]2c4nc(cs4)C(=O)N[C@@H](COC(=O)c4c5c6c(cccc6n4O)COC(=O)[C@@H](O[C@H]4C[C@](C)(O)[C@H](N(C)C)[C@H](C)O4)[C@H]2OC5)c2nc-3cs2)n1)C(N)=O` [MJ347-81F4 A] registered a solubility in data set [3] of 340 µg/mL (≈ 237 µM). Besides, the ED50 in the data set listed under Mus musculus was 0.8 mg/kg. Further, the MIC is 0.03 µg/mL (≈ 0.0209 µM) in the data set with Enterococcus faecalis, 0.007 µg/mL (≈ 0.00487 µM) in the data set with Staphylococcus aureus and 0.002 µg/mL (≈ 0.00139 µM) in the data set with Streptococcus pneumoniae.

The record behind these values is ChEMBL document CHEMBL1138895, “Synthesis and antibacterial activity of nocathiacin I analogues” (Bioorg Med Chem Lett, 2006).
